In patent US7056947B2, “Aza-peptide epoxides” (Georgia Tech Research Corp., priority 2002, dated 2006):

How the values were obtained:
caspase-1 = target: T1, caspase-1 (Homo sapiens, UniProt P29466, D381E); test: Caspase-1 progress curve assay; type: biochemical; conditions: D381E variant, substrate Ac-YVAD-AMC, 30° C.
T1 construct: His tag (N); made in house; host or cells: E. coli
T1 sequence (P29466 120-297 limits assumed): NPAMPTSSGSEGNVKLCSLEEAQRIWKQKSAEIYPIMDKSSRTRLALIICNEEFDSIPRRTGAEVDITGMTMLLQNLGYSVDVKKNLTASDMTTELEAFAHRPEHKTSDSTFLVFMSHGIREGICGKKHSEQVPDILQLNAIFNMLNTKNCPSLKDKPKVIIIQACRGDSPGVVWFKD
T1 sequence (P29466 317-404 D381E limits assumed): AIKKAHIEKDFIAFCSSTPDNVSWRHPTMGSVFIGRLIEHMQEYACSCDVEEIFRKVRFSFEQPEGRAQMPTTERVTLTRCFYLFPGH
Source text: Caspase-1. The preparation of the autolytically stable caspase-1 variant used in these studies has been described previously. Briefly, the variant contains a mutation (D381E) which renders it resistant to autolytic inactivation, but has no detectable affect on enzyme activity as compared to the naturally occurring enzyme. The enzyme variant was expressed in E. coli, purified first by immobilized metal chromatography via the N-terminal N-His tag, treated with excess oxidized glutathione to stabilize the reactive thiolate, and then re-purified by size-exclusion chromatography.
Inhibition data was measured using the progress curve assay method. Serial dilutions of each compound were prepared using an initial 8-fold dilution of a DMSO stock into HGE (100 mM HEPES,20% glycerol v/v, 0.5 mM EDTA), followed by seven serial two-fold dilutions into HGE and 12.5% DMSO, thus maintaining constant DMSO through the dilution series. Ten μL of diluted stocks or of vehicle (HGE and 12.5% DMSO) were placed in triplicate onto a 96-well microtiter plate, allowing several compounds to be tested on each plate. The plate was covered to minimize evaporation, and the plate was pre-warmed to 30° C. for 20 minutes. Enzyme was diluted into 10.0 mL of assay buffer (HGE, 5 mM DTT, plus 15 μM Ac-YVAD-AMC, 2 nM approximate final enzyme concentration), and this activated reaction mixture was added to the plate at 90 μL/well. Progress of substrate hydrolysis was monitored for 900 s in a LabSystems (Needham, Mass.) Fluoroskan Ascent fluorescent plate-reader using 385 and 460 nm excitation and emission filters, respectively, and a photomultiplier gain setting of 10. Triplicate curves were averaged and fit by nonlinear regression to the equation for irreversible inactivation shown below.
[formula] where F0 was routinely fixed to zero, since fluorescence values were always adjusted to an origin of 0. The second order rate constant kon (M^−1s^−1) was obtained from the slopes by linear regression, and errors represent the standard deviation of the regression slope.

caspase-3 = target: T2, caspase-3 (Homo sapiens, UniProt P42574); test: Caspase-3 progress curve assay; type: biochemical; conditions: substrate Z-DEVD-AFC; NI = no inhibition
T2 construct: made in house; host or cells: E. coli
T2 sequence (P42574 29-175 limits assumed): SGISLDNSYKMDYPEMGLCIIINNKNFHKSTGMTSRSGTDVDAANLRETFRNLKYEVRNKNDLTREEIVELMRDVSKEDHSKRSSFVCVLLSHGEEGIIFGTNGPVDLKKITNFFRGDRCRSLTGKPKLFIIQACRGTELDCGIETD
T2 sequence (P42574 176-277 limits assumed): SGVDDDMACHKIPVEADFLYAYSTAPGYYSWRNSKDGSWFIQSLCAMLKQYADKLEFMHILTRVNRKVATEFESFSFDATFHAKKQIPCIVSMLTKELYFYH
Experimental: Caspase-3, -6, and -8. Caspase-3, -6 and -8 were expressed in E. coli and purified according to methods previously described by Stennicke and Salvesen. Assays using the fluorogenic substrate Z-DEVD-AFC (λex=400 nm, λem=505 nm) were carried out on a Molecular Devices fMax fluorescence microplate reader. Inhibition rates and equilibria were determined by the progress curve method. The standard 100 μL reaction was started by adding enzyme to a mixture of substrate (final concentration of Z-DEVD-AFC 100 μM) and various amounts of inhibitor in buffer (50 mM Hepes, 100 mM NaCl, 0.1% (w/v) CHAPS, sucrose 10% (w/v), and 10 mM DTT, at pH 7.4). The caspases were pre-activated for 10 min at 37° C. in the presence of 10 mM DTT.

k2 caspase-1 (caspase-1) [M⁻¹ s⁻¹] | k2 caspase-3 (caspase-3) [M⁻¹ s⁻¹] | Structure (SMILES)
9250 ± 2835 | 722180 ± 340860 | CC(C)[C@H](NC(=O)[C@H](CCC(=O)O)NC(=O)[C@H](CC(=O)O)NC(=O)OCc1ccccc1)C(=O)NN(CC(=O)O)C(=O)[C@H]1O[C@@H]1C(=O)N[C@@H](Cc1ccccc1)C(N)=O [25l, Cbz-Asp-Glu-Val-AAsp-(S,S)-EP-CO-Phe-NH2]
– | 1280 ± 77 | CC(C)C[C@H](NC(=O)OCc1ccccc1)C(=O)N[C@@H](CCC(=O)O)C(=O)N[C@H](C(=O)NN(CC(=O)O)C(=O)[C@H]1O[C@@H]1C(=O)NC(C)C(=O)NCc1ccccc1)[C@@H](C)O (stereo partly drawn) [26j, (2S,3S)-2-(1-Benzylcarbamoyl-ethylcarbamoyl)-3-(N^2-(N-benzyloxycarbonylleucylglutamylthreonyl)-N^1-carboxymethylhydrazinocarbonyl)oxirane]
300 ± 144 | – | CC(C)[C@H](NC(=O)CCc1ccccc1)C(=O)N[C@@H](C)C(=O)NN(CC(=O)O)C(=O)[C@@H]1O[C@H]1CCc1ccccc1 (relative stereo) [23a, trans-3-(N^2-(N-3-Phenylpropanoylvalylalanyl)-N^1-carboxylmethylhydrazinocarbonyl)-2-(2-phenylethyl)oxirane]
– | 1910 ± 370 | CCNC(=O)[C@H]1O[C@@H]1C(=O)N(CC(=O)O)NC(=O)[C@H](C)NC(=O)[C@@H](NC(=O)CCc1ccccc1)C(C)C [23f, (2S,3S)-2-(2-Ethylcarbamoyl)-3-(N^2-(3-phenylpropanoylvalylalanyl)-N^1-carboxymethylhydrazinocarbonyl)oxirane]
– | 3050 | CC[C@H](C)[C@H](NC(=O)OCc1ccccc1)C(=O)N[C@@H](CCC(=O)O)C(=O)N[C@H](C(=O)NN(CC(=O)O)C(=O)[C@H]1O[C@@H]1C(=O)NC(C)C(=O)NCc1ccccc1)[C@@H](C)O (stereo partly drawn) [27j, (2S,3S)-2-(1-Benzylcarbamoyl-ethylcarbamoyl)-3-(N^2-(N-benzyloxycarbonylisoleucylglutamylthreonyl)-N^1-carboxymethylhydrazinocarbonyl)oxirane]
– | 2550 ± 25 | CC(C)C[C@H](NC(=O)OCc1ccccc1)C(=O)N[C@@H](CCC(=O)O)C(=O)N[C@H](C(=O)NN(CC(=O)O)C(=O)[C@H]1O[C@@H]1C(=O)NCCc1ccccc1)[C@@H](C)O [26h, (2S,3S)-2-(2-Phenethylcarbamoyl)-3-(N^2-(N -benzyloxycarbonylleucylglutamylthreonyl)-N^1-carboxymethylhydrazinocarbonyl)oxirane]

The next lines start with the molecule.

Structure (SMILES) | k2 caspase-1 (caspase-1) [M⁻¹ s⁻¹] | k2 caspase-3 (caspase-3) [M⁻¹ s⁻¹]
CCOC(=O)[C@@H]1O[C@H]1C(=O)N(CC(=O)O)NC(=O)[C@@H](NC(=O)[C@H](CCC(=O)O)NC(=O)[C@H](CC(=O)O)NC(=O)OCc1ccccc1)C(C)C [25c (R,R), (2R,3R)-3-(N^2-(N-Benzyloxycarbonylaspartylglutamylvalyl)-N^1-carboxymethylhydrazinocarbonyl)oxirane-2-carboxylic Acid Ethyl Ester] | 4320 ± 830 | 464420 ± 186300
CCOC(=O)[C@@H]1O[C@H]1C(=O)N(CC(=O)O)NC(=O)[C@@H](NC(=O)[C@H](CCC(=O)O)NC(=O)[C@@H](NC(=O)OCc1ccccc1)[C@@H](C)CC)[C@@H](C)O [27c (R,R), (2R,3R)-3-(N^2-(N-Benzyloxycarbonylisoleucylglutamylthreonyl)-N^1-carboxymethylhydrazinocarbonyl)oxirane-2-carboxylic Acid Ethyl Ester] | 13260 ± 3684 | 2630 ± 365
CC(C)[C@H](NC(=O)CCc1ccccc1)C(=O)N[C@@H](C)C(=O)NN(CC(=O)O)C(=O)[C@@H]1O[C@H]1C(=O)NCCc1ccccc1 [23h (R,R), (2R,3R)-2-(2-Phenethylcarbamoyl)-3-(N^2-(3-phenylpropanoylvalylalanyl)-N^1-carboxymethylhydrazinocarbonyl)oxirane] | 950 ± 51 | –
CC(C)[C@H](NC(=O)OCc1ccccc1)C(=O)NN(CC(=O)O)C(=O)[C@@H]1O[C@H]1c1ccc(Cl)cc1 (relative stereo) [22b, trans-2-(N^2-(N-Benzyloxycarbonylvalyl)-N^1-carboxymethylhydrazinocarbonyl)-3-(4-chlorophenyl)oxirane] | – | 145 ± 18
CC(C)[C@H](NC(=O)CCc1ccccc1)C(=O)N[C@@H](C)C(=O)NN(CC(=O)O)C(=O)[C@@H]1O[C@H]1C(=O)OCc1ccccc1 [23d (R,R), (2R,3R)-3-(N^2-(3-Phenylpropanoylvalylalanyl)-N^1-carboxymethylhydrazinocarbonyl)oxirane-2-carboxylic Acid Benzyl Ester] | 1860 ± 302 | –
CC(NC(=O)[C@H]1O[C@@H]1C(=O)N(CC(=O)O)NC(=O)[C@H](C)NC(=O)[C@@H](NC(=O)CCc1ccccc1)C(C)C)C(=O)NCc1ccccc1 (stereo partly drawn) [23j (S,S), (2S,3S)-2-(1-Benzylcarbamoylethylcarbamoyl)-3-(N^2-(3-phenylpropanoylvalylalanyl)-N^1-carboxymethylhydrazinocarbonyl)oxirane] | 13400 | 260 ± 25
CCOC(=O)C1OC1C(=O)N(CC(=O)O)NC(=O)C(NC(=O)OCc1ccccc1)C(C)C [22c, Cbz-Val-AAsp-(S,S)-EP-COOEt] | – | 3650 ± 570
CC(C)C(NC(=O)OCc1ccccc1)C(=O)NN(CC(=O)O)C(=O)C1OC1CCc1ccccc1 (stereo not drawn) [22a, Cbz-Val-AAsp-(trans)-EP-CH2CH2Ph] | – | 310 ± 5
CC(C)C(NC(=O)OCc1ccccc1)C(=O)NN(CC(=O)O)C(=O)C1OC1C(=O)O [22n, Cbz-Val-AAsp-(S,S)-EP-COOH] | – | 1110 ± 340
CC(NC(=O)[C@@H]1O[C@H]1C(=O)N(CC(=O)O)NC(=O)[C@H](C)NC(=O)[C@@H](NC(=O)CCc1ccccc1)C(C)C)C(=O)NCc1ccccc1 (stereo partly drawn) [23j (R,R), (2R,3R)-2-(1-Benzylcarbamoylethylcarbamoyl)-3-(N^2-(3-phenylpropanoylvalylalanyl)-N^1-carboxymethylhydrazinocarbonyl)oxirane] | 268 ± 75 | –
CC(NC(=O)C(NC(=O)CCc1ccccc1)C(C)C)C(=O)NN(CC(=O)O)C(=O)[C@@H]1O[C@H]1C(=O)NCc1ccccc1 (stereo partly drawn) [23g (R,R), (2R,3R)-2-(2-Benzylcarbamoyl)-3-(N^2-(3-phenylpropanoylvalylalanyl)-N^1-carboxymethylhydrazinocarbonyl)oxirane] | 1630 ± 522 | –
CCOC(=O)[C@@H]1O[C@H]1C(=O)N(CC(=O)O)NC(=O)[C@H](C)NC(=O)[C@@H](NC(=O)CCc1ccccc1)C(C)C [23c (R,R)] | 6290 ± 1524 | –
CC(C)[C@H](NC(=O)CCc1ccccc1)C(=O)N[C@@H](C)C(=O)NN(CC(=O)O)C(=O)[C@@H]1O[C@H]1C(=O)NCC(O)c1ccccc1 (stereo partly drawn) [23i (R,R), (2R,3R)-2-(2-Hydroxy-2-phenylethylcarbamoyl)-3-(N^2-(3-phenylpropanoylvalylalanyl)-N^1-carboxymethylhydrazinocarbonyl)oxirane] | 400 ± 19 | –
CC(C)[C@H](NC(=O)CCc1ccccc1)C(=O)N[C@@H](C)C(=O)NN(CC(=O)O)C(=O)[C@@H]1O[C@H]1C(=O)NC(Cc1ccccc1)C(N)=O (stereo partly drawn) [23l (R,R), (2R,3R)-2-(1-Amido-phenethylcarbamoyl)-3-(N^2-(3-phenylpropanoylvalylalanyl)-N^1-carboxymethylhydrazinocarbonyl)oxirane] | 330 | –
